Molecular target: Vibrio cholerae MARTX toxin cysteine protease domain (CPD) (Vibrio cholerae serotype O1, UniProt Q9KS12)
Format: biochemical
Conditions: increasing amounts of InsP6, 2 hrs at 4° C.

Sequence of Vibrio cholerae MARTX toxin cysteine protease domain (CPD) (Q9KS12 3440-3650 limits assumed): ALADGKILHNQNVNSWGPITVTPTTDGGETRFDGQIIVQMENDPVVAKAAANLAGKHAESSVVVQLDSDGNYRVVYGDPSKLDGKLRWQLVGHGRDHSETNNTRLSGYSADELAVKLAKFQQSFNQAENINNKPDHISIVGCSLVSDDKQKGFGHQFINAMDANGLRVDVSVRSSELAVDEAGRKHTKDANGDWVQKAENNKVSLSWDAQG

SMILES: O=P(O)(O)OC1C(OP(=O)(O)O)C(OP(=O)(O)O)C(OP(=O)(O)O)C(OP(=O)(O)O)C1OP(=O)(O)O (stereo not shown) [InsP6, inositol hexakisphosphate]
- release of GFP from Ni2+-NTA agarose beads (CPD autoprocessing): stimulated the release of GFP

Reference: patent US20130012687A1, “INDUCIBLE SELF-CLEAVING PROTEASE TAG AND METHOD OF PURIFYING RECOMBINANT PROTEINS USING THE SAME” (The Board of Trustees of the Leland Stanford Junior …, priority 2009, published 2013)
